Data published in patent US20160244411A1, “TAU IMAGING PROBE” (CLINO LTD., priority 2013, published 2016).
Like-named read-outs stand apart in the source and are kept apart here. One block for each compound: values may come before it.

Tests used:
[1] = molecular target: AD brain tissue homogenates (Homo sapiens, UniProt P10636); test: Competitive binding test using [3H]THK-5117 as radio ligand with AD brain tissue homogenates; details: 2 nM [3H]THK-5117, 100 μg homogenate, 3 hours room temperature
Description: Binding Experiment (1) with AD Brain Tissue Homogenates Competitive Binding Test Using [^3H]THK-5117 as Radio Ligand
PBS (0.1% BSA) was used as an assay buffer, and the concentration of TI-IK-5105S or THK-5105R was adjusted with 2 nM [^3H] THK-5117 to 10^−5 to 10^−10 M in a reaction system (200 μL) containing 100 μg of the homogenates, and the competitive tests were then carried out. A nonspecific binding was measured with 2 μM of THK-5117. After incubation at room temperature for 3 hours, a glass filter plate was used to separate [^3H]THK-5117 bound to the homogenates and unbound [^3H] THK-5117, and the filter plate was washed, and then to the separated filter was added liquid scintillation cocktail, and the bound radioactivity was measured on a liquid scintillation counter. The data was analyzed by analysis software GraphPad Prism (Ver. 5). The competitive tests were carried out similarly on THK-5117S, THK-5117R, THK-5151S, and THK-5151R.

[2] = tested on: tau lesion region; test: Autoradiography of hippocampus sections of an Alzheimer's disease patient; type: binding, human; details: AD hippocampus section, about 400 μCi/ml, in comparison with the corresponding R-form
Description: A brain specimen in hippocampus of the patient which was definitively-diagnosed as Alzheimer's disease pathologically was used. A paraffin-embedded brain tissue was sliced by 6 μm or 8 μm thick, and stretched on a glass slide, and dried. The paraffin brain sections were deparaffinized by washing sequentially with xylene 10 min.×2, 100% ethanol 5 min.×2, 90% ethanol 5 min., and flowing water 10 min. After deparaffinization, the sections were immersed in PBS. Each of about 400 μCi/ml of [^18F]THK-5105S and [^18F]THK-5105R was added dropwise to the sections, and the sections were allowed to a reaction at room temperature for 10 min. Thereafter, the sections were immersed in distilled water for 2 min., and successively, shaked lightly in 50% EtOH for 2 min., and thereafter immersed in distilled water for 2 min. again, and dried on paraffin stretching plate. Then, the sections were contacted with imaging plate, and allowed to stand overnight, and on next day, the imaging was read on BAS5000 (manufactured by FUJIFILM Holdings Corporation).
The autoradiography experiments were also carried out similarly on [^18F]THK-5151S and [^18F]THK-5151R.
THK-5105R and [^18F] THK-5151R in tau lesion region, which means that they binds more strongly to tau pathology.

[3] = tested on: AD hippocampus tissue homogenate (tau lesion); test: Saturation binding experiment with AD hippocampus tissue homogenate; design: species or system human; details: 0.1 to 100 nM
Description: Further, according to the above-mentioned assay buffer, nonspecific binding measurement, and filter separation operation, each saturation binding experiment of [^18F]THK-5151S and [^18F]THK-5151R was carried out with AD hippocampus tissue homogenate. Zero point one (0.1) to 100 nM of each tested substance was incubated with hippocampus homogenate, and then filtered with a filter, washed, and then measured radioactivity supplemented by the filter, and thereby calculated as total binding and nonspecific binding at each concentration. The data was analyzed with GraphPad Prism (Ver. 5) to calculate binding dissociation constants Kd and Bmax. The binding curve of the results and the analysis results are shown as FIG. 6c.

[4] = Dynamic evaluation of normal mouse brain by biodistribution method; type: in vivo, ICR mouse
Description: A saline comprising [^18F]THK-5105S or [18F]THK-5105R was administered intravenously via tail to ICR mouse (male 6 to 7 weeks old), and the time change of radioactivity distribution in brain was measured on Clairvivopet/CT (manufactured by Shimadzu Corporation, Kyoto). The brain dynamics was evaluated by the time-change of the accumulation rate of radioactivity in brain tissue after 2 min., 10 min., 30 min., 60 min., and 120 min.
The accumulation rate of radioactivity was calculated as the ratio of radioactivity per weight of evaluated tissue against total administered radioactivity (% Injected Dose/g of tissue; % ID/g). The measurement of the radioactivity was carried out with Gamma counter (Accuflex γ7000, measured by Hitachi-Aloka Medical, Tokyo). The experimental procedure was as follows. After administering the label compound intravenously via tail at 2 min., 10 min., 30 min., 60 min., and 120 min., cervical dislocation of mouse was performed under ether anesthesia, and organ tissues were extracted. The radioactivity and the weight of each sample were measured, and the data was analyzed to calculate % ID/g. Also, as the evaluation index for the disappearance from the brain, the divided value of the accumulation rate at 2 min. after administration by the accumulation rate at 60 min. after administration (2 min./60 min. ratio) was calculated.

[5] = tested on: amyloid β (Aβ); test: Tissue binding test with 10 AD homogenate samples, correlation with Aβ concentration; design: species or system human; details: 1 nM probe, 100 μg tissue, 1 hour incubation
Description: (§1) Binding Experiment (2) with AD Brain Tissue Homogenates Organization Binding Evaluation Experiment of [^18F]THK-5105S
(§2) According to the above-mentioned assay buffer, nonspecific binding measurement, and filter separation operation, using 10 kinds of AD homogenate samples each having different tau concentration and amyloid β (Aβ) concentration, the reaction system was adjusted such that the tissue concentration was made 100 μg and [^18F]THK-5105S concentration was made 1 nM, and the binding test (1 hour incubation) was carried out in the reaction system.
(§3) As comparative example, the binding test was carried out also on [^18F]THK-5105R according to the similar method. The tau concentration or Aβ concentration was plotted on horizontal axis […], and the bound amount of [^18F]THK-5105S and [^18F]THK-5105R was plotted on vertical axis, and the correlation thereof was evaluated.
(§4) This means that when imaging, [^18F]THK-5105S can be detected the change of the tau concentration more sensitively.

[6] = Dynamic evaluation of normal mouse brain by small animal PET; type: in vivo, ICR mouse
Description: For experiments in small animal PET (evaluation of its brain delivery), Polysorbate 80 was added to the ethanol-eluted fraction, from which the ethanol was removed using an evaporator. The [^18F] THK-5105S containing radioactive residue within the flask was dissolved in physiological saline and the solution prepared was used as a solution for injection.
In this experiment, […] was administered intravenously via tail to ICR mouse (male 6 to 7 weeks old) under isoflurane anesthesia (1.5%), and the time-change of radioactivity distribution in brain was measured on Clairvivopet/CT (manufactured by Shimadzu Corporation, Kyoto). The emission scan was started simultaneously with the administration of the probe, and measured in 3D list mode for 120 min. After imaging, 35 frames (10×60 s, 10×120 s, […]) were reconstructed, and a region of interest was set in the brain, and quantified as SUV, and a time-activity curve (TAC) was created, and the Dynamism of the both probes were compared.
THK-5105R. In order to compare the disappearance change, the peak values of the TAC for both probes were converted into 100%, and the TAC was then shown as FIG. 7B. As evident from the TACs, [^18F]THK-51055 has larger ratio of disappearance per hour than [^18F]THK-5105R, that is, has more rapid rate of disappearance.
THK-5105R, and can therefore detect tau lesion with more excellent selectivity.

[7] = tested on: tau; test: Tissue binding test with 10 AD homogenate samples, correlation with tau concentration; design: species or system human; details: 1 nM probe, 100 μg tissue, 1 hour incubation, in comparison with [18F]THK-5105R
Description: as §1, §2, §3, §4

[8] = read-out: Ki Entorhinal cortex 601 pmol/g tissue
[9] = read-out: Ki Temporal lobe cortex (607.6 pmol/g tissue)
[10] = intravenous via tail, in comparison with [18F]THK-5105R

AD brain tissue homogenates, sequence (P10636 623-695 limits assumed): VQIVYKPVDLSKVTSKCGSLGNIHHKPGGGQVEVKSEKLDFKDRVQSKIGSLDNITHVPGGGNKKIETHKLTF

SMILES: CN(C)c1ccc(-c2ccc3cc(OC[C@@H](O)CF)ccc3n2)cc1 [THK-5105R, reference compound]
Ki [1, 8]: 27.4 nM
Ki [1, 9]: 16.3 nM

SMILES: CN(C)c1ccc(-c2ccc3cc(OC[C@H](O)CF)ccc3n2)cc1 [THK-5105S]
Ki [1, 8]: 4.6 nM
Ki [1, 9]: 2.6 nM

SMILES: CNc1ccc(-c2ccc3cc(OC[C@H](O)CF)ccc3n2)cc1 [THK-5117S]
Ki [1, 9]: 9.4 ± 4.8 nM

SMILES: CN(C)c1ccc(-c2ccc3cc(OC[C@H](O)C[18F])ccc3n2)cc1 [[^18F]THK-5105S]
autoradiography imaging signal in tau lesion region [2]: stronger imaging signal

SMILES: CNc1ccc(-c2ccc3cc(OCC(O)CF)ccc3n2)cc1 (centres unmarked) [THK-5117R, reference compound]
Ki [1, 9]: 25.7 ± 10.7 nM

The next lines start with results.

Ki [1, 9]: 7.2 ± 1.27 nM
SMILES: CNc1ccc(-c2ccc3cc(OC[C@H](O)CF)ccc3n2)cn1 [THK-5151S]

Bmax/Kd value as bonding potential in comparison with [18F]THK-5151R [3]: about fourth times large Bmax/Kd value
Kd value in comparison with [18F]THK-5151R [3]: about one tenth small Kd value
accumulation rate of radioactivity in brain, 2 min. ([4]; 2 min. after intravenous administration, n = 4): 4.36 ± 0.19 % ID/g
accumulation rate of radioactivity in brain, 10 min. ([4]; 10 min. after intravenous administration, n = 4): 1.10 ± 0.19 % ID/g
accumulation rate of radioactivity in brain, 30 min. ([4]; 30 min. after intravenous administration, n = 4): 0.21 ± 0.03 % ID/g
accumulation rate of radioactivity in brain, 60 min. ([4]; 60 min. after intravenous administration, n = 4): 0.13 ± 0.03 % ID/g
accumulation rate of radioactivity in brain, 120 min. ([4]; 120 min. after intravenous administration, n = 4): 0.12 ± 0.02 % ID/g
2 min./60 min. ratio ([4]; brain accumulation rate at 2 min. divided by that at 60 min.): 33
accumulation rate value after the initial uptake, compared between probes ([4]; in comparison with [18F]THK-5151R): lower values
brain uptake shortly after administration ([4]; shortly after administration): about 4 % ID/g
SMILES: CNc1ccc(-c2ccc3cc(OC[C@H](O)CF)ccc3n2)cn1 [[^18F]THK-5151S]
autoradiography imaging signal in tau lesion region [2]: stronger imaging signal

SUV Ratio 5 min./30 min. ([6]; brain, intravenous via tail): 1.92 ± 0.3
SUV Ratio 5 min./60 min. ([6]; brain, intravenous via tail): 3.67 ± 0.9
SUV Ratio 5 min./120 min. ([6]; brain, intravenous via tail): 7.75 ± 1.6
SMILES: CN(C)c1ccc(-c2ccc3cc(OCC(O)C[18F])ccc3n2)cc1 (centres unmarked) [[^18F]THK-5105R, reference compound]
correlation of tissue bound amount with the Aβ concentration [5]: could not be found to have a correlation with the Aβ concentration

tissue bound amount [7]: higher bound amount
SUV ratios 5 min./30 min., 5 min./60 min., 5 min./120 min. compared between probes ([6]; brain, in comparison with [18F]THK-5105R): significantly higher value
SUV Ratio 5 min./30 min. ([6]; brain, intravenous via tail): 2.70 ± 0.1
SUV Ratio 5 min./60 min. ([6]; brain, intravenous via tail): 6.27 ± 0.6
SUV Ratio 5 min./120 min. ([6]; brain, intravenous via tail): 19.2 ± 4.4
SMILES: CN(C)c1ccc(-c2ccc3cc(OC[C@H](O)CF)ccc3n2)cc1 [[^18F]THK-5105S]
correlation of tissue bound amount with the tau concentration [7]: extremely higher correlation with the tau concentration
correlation of tissue bound amount with the Aβ concentration [5]: could not be found to have a correlation with the Aβ concentration
disappearance from normal brain tissue (time-activity curve) [6, 10]: disappeared more rapidly from normal brain tissue
retention into the normal brain tissue [6, 10]: lower retention into the normal brain tissue
